Experimental data: ChEMBL document CHEMBL1136180, “Isolation of bisindole alkaloids that inhibit the cell cycle from Myxomycetes Arcyria ferruginea and Tubifera casparyi” (Bioorg Med Chem Lett, 2003)

Experiments:
HeLa [1] = experiment: Compound was tested at concentration of 280 nM for HeLa cell cycle inhibition; arrest of G2/M phase; type: functional, cell-based; details: Homo sapiens
HeLa [2] = experiment: Compound was tested at concentration of 28 nM for HeLa cell cycle inhibition; arrest of G1 phase; type: functional, cell-based; details: Homo sapiens

Which results are given for O=C1NC(=O)c2c1c1c3ccc(O)cc3[nH]c1c1[nH]c3cc(O)ccc3c21?
Concentration (HeLa [1]): 100 ng/mL; Concentration (HeLa [2]): 10 ng/mL
